Data as given in US9371275B2, “5-aminolevulinic acid prodrugs for use in photodynamic therapy and photodynamic diagnosis” (Swedish Pharma AB, priority 2008, dated 2016).

How the values were obtained:
human living cells = test: PpIX synthesis in human living cells, spectrofluorometric measurements (fluorescence at 632 nm); type: cell-based
Excerpt: Using the spectrum of PpIX as reference (FIG. 2), a comparison between PpIX synthesis by the oxime compound according to the invention with that based on the methyl ester of 5ALA currently in clinical use (MetVix), was made on human living cells using spectrofluorometric measurements.
Diamonds=5ALA methyl ester (MetVix); Squares=5ALA oxime 20% w/w in Essex™ cream.

[1] = after application of 5ALA or known derivatives; cited from earlier work
[2] = after intravenous injection; very slow clearance rate from the body; cited from earlier work

**Q.** For `NCC(CCC(=O)O)=NO` [5-ALA oxime], which “production of PpIX” value (human living cells) is on record?
**A.** capable of producing PpIX

**Q.** What about the “time for which elevated levels of PpIX are retained after application” value (human living cells; 5ALA oxime 20% w/w in Essex cream, human cells, fluorescence at 632 nm) of the same compound?
**A.** at least 6 h

**Q.** And the “concentration of PpIX generated compared with 5ALA methyl ester (MetVix)” value (human living cells; 3 h after application, 5-ALA oxime 20% (w/w) in Essex cream, human cells)?
**A.** higher concentration of PpIX

**Q.** With `NCC(=O)CCC(=O)O` [5ALA, 5-aminolevulinic acid] as the compound, how does the “time after application at which PpIX concentration reaches optimal therapeutic window” value [1] read?
**A.** 2 to 4 h

**Q.** What about the “time in which PpIX concentration decays to normal background levels” value [1] of the same compound?
**A.** 36 to 48 h

**Q.** Which “duration of patient hypersensitization” value [2] does the source give for `Oc1cccc(-c2c3nc(c(-c4cccc(O)c4)c4ccc([nH]4)c(-c4cccc(O)c4)c4nc(c(-c5cccc(O)c5)c5ccc2[nH]5)CC4)C=C3)c1` [Foscan, temoporfin] here?
**A.** up to 3 weeks
